The text below walks through data of patent publication US20190092756A1, “CRYSTALLINE FORM A OF 2-[(2R)-2-METHYL-2-PYRROLIDYL]-1H-BENZIMIDAZOLE-7-CARBOXAMIDE DIHYDROCHLORIDE AND PREPARATION METHOD THEREOF” (Crystal Pharmatech Co., Ltd., priority 2016, published 2019).

In brackets after ≈: the same amount, converted by molar mass. Read-outs that look alike come from different tables or passages of the source.

Series [1] in a line: Particle size distribution (PSD) study, laser particle size analyzer. The class given is physicochemical. The note with it: wet method, dispersion medium Isopar G. The source says: The result of particle size distribution (PSD) in the present disclosure was acquired by laser particle size analyzer with S3500 model from Microtrac company. The Microtrac S3500 is equipped with a SDC (Sample Delivery Controller) sampling system. This experiment uses a wet method and the dispersion medium is Isopar G. The method and parameters of the laser particle size analyzer are as follows:
The particle size distributions (PSD) of crystalline form A and crystalline form 1 and form 2 in CN101821269B were studied.

The conditions of series [2]: cited from earlier work; for Solubility (in words): from CN101821270A and CN101821269B.
The nature of series [3]: Mechanical stability study (grinding, XRPD before and after). In kind it is physicochemical. The note with it: ground for 5 minutes. The protocol: Crystalline form A of present disclosure was ground, and analyzed by XRPD before and after being ground for 5 minutes.
A short description of series [4]: Physical stability study (storage, XRPD before and after). The following applies: 1 month. The class given is physicochemical. The procedure:
Crystalline form A was stored at 25° C./60% RH and 40° C./75% RH for one month.

Series [5] in a line: Solubility study in SGF, FeSSIF, FaSSIF and water. The class given is physicochemical. The procedure:
Crystalline form A samples were dissolved into 1 mL of simulated gastric fluid (SGF), fed state simulated intestinal fluid (FeSSIF, pH 5.0), fasted state simulated intestinal fluid (FaSSIF, pH 6.5) and water to test the corresponding solubility.

Turning to `C[C@]1(c2nc3cccc(C(N)=O)c3[nH]2)CCCN1` [Form 1, 2-[(2R)-2-methyl-2-pyrrolidinyl]-1H-benzimidazole-7-carboxamide], in series [1], the D10 stood at 11.54 μm, the D50 is 18.89 μm, the D90 came out at 31.97 μm and the “MV (average based on volume)” value worked out at 20.89 μm. Also, the “Solubility (in words)” value in series [2] (listed as Crystalline form 1) is reported as “better solubility”.

Turning to `C[C@]1(c2nc3cccc(C(N)=O)c3[nH]2)CCCN1` [Form 2, 2-[(2R)-2-methyl-2-pyrrolidinyl]-1H-benzimidazole-7-carboxamide], in series [1], the D10 is 8.99 μm, the D50 worked out at 59.08 μm, the D90 was determined as 231.9 μm and the “MV (average based on volume)” value worked out at 94.50 μm. For the same compound, the “Solubility (in words)” value in series [2] (listed as crystalline form 2) is reported as “poor solubility”.

The solubility is the concentration that dissolves in the medium under given conditions. `C[C@]1(c2nc3cccc(C(N)=O)c3[nH]2)CCCN1` [Form A, 2-[(2R)-2-methyl-2-pyrrolidinyl]-1H-benzimidazole-7-carboxamide] displayed a D10 in series [1] of 41.6 μm. Also, the D50 in series [1] was found to be 278.6 μm. Also, the D90 in series [1] is on record as 1118 μm. For the same compound, the “MV (average based on volume)” value in series [1] is reported as 407.2 μm. Besides, in series [3], the “XRPD pattern change before and after grinding” value is “no significant change”. The Crystalline form change entry in series [4] (25° C./60% RH) and in series [4] (40° C./75% RH) was “No change” each time. For the same compound, the “Observation (dissolution)” value in series [5] (11.2 mg in 1 mL water) was “Completely”; in series [5] (11.3 mg in 1 mL FeSSIF, pH 5.0) it was “Completely”; in series [5] (11.5 mg in 1 mL FaSSIF, pH 6.5), “Completely”; in series [5] (12.4 mg in 1 mL SGF), “Completely”. Also, the “Weight of sample dissolved” value in series [5] (in 1 mL FaSSIF, pH 6.5) is 11.5 mg; in series [5] (in 1 mL FeSSIF, pH 5.0), 11.3 mg; in series [5] (in 1 mL SGF), 12.4 mg; in series [5] (in 1 mL water), 11.2 mg. Further, the “Solubility relative to crystalline forms disclosed in the prior art” value in series [5] (in SGF, FaSSIF, FeSSIF and water) is “at least 2 times”. The solubility in series [5] (thermodynamic from solid, in SGF, FaSSIF, FeSSIF and water) was above 10000 µg/mL.

On to `C[C@]1(c2nc3c(C(N)=O)cccc3[nH]2)CCCN1` [crystalline form B, 2-[(2R)-2-methyl-2-pyrrolidinyl]-1H-benzimidazole-7-carboxamide], for which the solubility in series [2] (after 24 hours in SGF, from CN105130961A) was 6000 µg/mL (≈ 24.6 mM).
